Experimental findings from patent publication US8278306B2 (Vertex Pharmaceuticals Incorporated, priority 2006, dated 2012) are described below.

One assay has as its target T1, ROCK I (AA 6-553) (Homo sapiens, UniProt Q13464).
T1 construct: ROCK I (AA 6-553)
The assay can be described thus: ROCK inhibition assay, standard coupled enzyme system. The settings on record: 45 nM ROCK I, 45 μM ATP, 200 μM peptide, 30° C. In kind it is biochemical. Here is the method: Reactions were carried out in a solution containing 100 mM HEPES (pH 7.5), 10 mM MgCl2, 25 mM NaCl, 2 mM DTT and 1.5% DMSO.

The next assay has as its target CYP3A4 (Homo sapiens, UniProt P08684). The assay can be described thus: Cytochrome P450 isozyme inhibition, fluorescent Vivid substrate. In kind it is in vitro ADME. The following applies: 5 nM CYP3A4, 5 μM Vivid 3A4 Red, 60 minutes. The protocol: Selected compounds of the invention were assayed for their ability to inhibit various cytochrome P450 isozymes, such as, for example CYP2D6, CYP2C9, CYP1A2, CYP2C19, CYP3A4, CYP2C9, and CYP3A4 (human liver microsome). Such assays are described by Crespi et al., Anal. Biochem. 248:188-90, 1997; Ekins et al., J. Pharmacol. Exp. Ther. 290, 429-38, 1999; and Ekins et al., J. Pharmacol. Exp. Ther. 291, 424-33, 1999. […] The plate is centrifuged for 2 minutes at approximately 1000 rpm to shift the compound to the bottom of the well. […] Distilled water (800 nL) is added to the wells containing compound, the background control wells, and the positive control wells, followed by the addition of 200 nL of phosphate buffer (500 mM potassium phosphate butter at pH=8.4). The positive control cells contain a drug such as, for example, miconazole. Insect baculosomes (PanVera […]) in […] phosphate buffer was added to the background control wells and the plate was scanned for compound fluorescence. […] After incubation for 60 minutes, the wells were read with a fluorescent plate reader.

The target in the next assay is T2, CYP1A2 (Homo sapiens, UniProt P05177).
T2 sequence (P05177 1-516): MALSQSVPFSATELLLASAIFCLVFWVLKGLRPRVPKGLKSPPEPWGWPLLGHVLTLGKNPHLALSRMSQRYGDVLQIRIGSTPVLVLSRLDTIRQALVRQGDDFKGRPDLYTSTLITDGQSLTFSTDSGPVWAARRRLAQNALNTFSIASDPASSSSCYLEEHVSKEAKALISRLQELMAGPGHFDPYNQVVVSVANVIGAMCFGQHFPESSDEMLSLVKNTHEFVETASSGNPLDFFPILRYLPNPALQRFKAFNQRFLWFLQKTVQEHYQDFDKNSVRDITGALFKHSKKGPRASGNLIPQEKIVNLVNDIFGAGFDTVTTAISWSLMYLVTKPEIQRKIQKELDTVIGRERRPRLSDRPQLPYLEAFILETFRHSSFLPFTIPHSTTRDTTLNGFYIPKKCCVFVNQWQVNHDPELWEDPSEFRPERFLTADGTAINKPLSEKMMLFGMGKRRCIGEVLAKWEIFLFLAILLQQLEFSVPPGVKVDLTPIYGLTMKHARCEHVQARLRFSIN
The assay is described as above. In kind it is in vitro ADME. The settings on record: 5 nM CYP1A2, 2 μM Vivid 1A2 Blue, 60 minutes. Here is the method: (§1) Selected compounds of the invention were assayed for their ability to inhibit various cytochrome P450 isozymes, such as, for example CYP2D6, CYP2C9, CYP1A2, CYP2C19, CYP3A4, CYP2C9, and CYP3A4 (human liver microsome). Such assays are described by Crespi et al., Anal. Biochem. 248:188-90, 1997; Ekins et al., J. Pharmacol. Exp. Ther. 290, 429-38, 1999; and Ekins et al., J. Pharmacol. Exp. Ther. 291, 424-33, 1999. In a typical isozyme inhibition experiment, test compounds are placed into a microwell on a microtiter plate as an 8 nL solution (2 mM in 75% DMSO/water). The plate is centrifuged for 2 minutes at approximately 1000 rpm to shift the compound to the bottom of the well. Polyvinylpyrrolidone (PVP/10K, 100 nL, 0.2% in 75% DMSO/water) is added to the well and this excipient also centrifuged for 2 minutes at approximately 1000 rpm to ensure mixing with the compound. The plates containing the wells are dried in vacuo. Distilled water (800 nL) is added to the wells containing compound, the background control wells, and the positive control wells, followed by the addition of 200 nL of phosphate buffer (500 mM potassium phosphate butter at pH=8.4). The positive control cells contain a drug such as, for example, miconazole. Insect baculosomes (PanVera P2315) in […] phosphate buffer was added to the background control wells and the plate was scanned for compound fluorescence. […] Therefore, CYP450 isozyme (400 nL) and recycling buffer (3.3 mM glucose-6-phosphate, 0.4 units/mL glucose-6-phosphate dehydrogenase, 100 mM MgCl2, and 0.00025% Antifoam 289) in 100 mM phosphate buffer was added to each well containing compound and background control to obtain the following concentrations: 5 nM CYP3A4, 10 nM CYP2C9, 5 nM CYP1A2, 5 nM CYP2C19, and 20 nM CYP2D6. After incubation for 60 minutes, the wells were read with a fluorescent plate reader.

Another assay deals with CYP2C9 (Homo sapiens, UniProt P11712). Described as above. The format is in vitro ADME. The following applies: 10 nM CYP2C9, 1 μM Vivid 2C9 Green, 60 minutes. The protocol: as §1
Chain of CYP2C9 (P11712 whole entry): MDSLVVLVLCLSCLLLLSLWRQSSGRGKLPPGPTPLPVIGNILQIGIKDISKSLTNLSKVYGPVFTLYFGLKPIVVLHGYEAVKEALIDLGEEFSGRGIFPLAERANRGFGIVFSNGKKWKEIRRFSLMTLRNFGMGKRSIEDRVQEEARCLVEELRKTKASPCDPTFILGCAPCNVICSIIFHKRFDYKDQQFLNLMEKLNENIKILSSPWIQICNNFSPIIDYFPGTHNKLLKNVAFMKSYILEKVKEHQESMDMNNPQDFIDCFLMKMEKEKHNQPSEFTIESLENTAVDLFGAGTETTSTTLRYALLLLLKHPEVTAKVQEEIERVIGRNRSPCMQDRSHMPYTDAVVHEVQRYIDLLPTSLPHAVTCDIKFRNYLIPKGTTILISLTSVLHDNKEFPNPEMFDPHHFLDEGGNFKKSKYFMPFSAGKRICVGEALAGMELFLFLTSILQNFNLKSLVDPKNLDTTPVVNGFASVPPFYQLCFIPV
The next assay has as its target CYP2C19 (Homo sapiens, UniProt P33261). The assay is described as above. In kind it is in vitro ADME. The settings on record: 5 nM CYP2C19, 10 μM Vivid 2C19 Blue, 60 minutes. The protocol:
as §1

The next assay addresses CYP2D6 (Homo sapiens, UniProt P10635). The assay is described as above. The following applies: 20 nM CYP2D6, 10 μM Vivid 2D6 Blue, 60 minutes. The format is in vitro ADME. Here is the method: as §1
Assay [1] concerns the target T3, CYP3A4 (human liver microsome) (Homo sapiens, UniProt P08684).
T3 construct: CYP3A4 (human liver microsome); from tissue; host or cells: human liver microsomes
The assay can be described thus: Cytochrome P450 inhibition, human liver microsome. In kind it is in vitro ADME. The following applies: read-out: CYP3A4 (HLM) Ki. The protocol: Selected compounds of the invention were assayed for their ability to inhibit various cytochrome P450 isozymes, such as, for example CYP2D6, CYP2C9, CYP1A2, CYP2C19, CYP3A4, CYP2C9, and CYP3A4 (human liver microsome). Such assays are described by Crespi et al., Anal. Biochem. 248:188-90, 1997; Ekins et al., J. Pharmacol. Exp. Ther. 290, 429-38, 1999; and Ekins et al., J. Pharmacol. Exp. Ther. 291, 424-33, 1999. […] The plate is centrifuged for 2 minutes at approximately 1000 rpm to shift the compound to the bottom of the well. […] Distilled water (800 nL) is added to the wells containing compound, the background control wells, and the positive control wells, followed by the addition of 200 nL of phosphate buffer (500 mM potassium phosphate butter at pH=8.4). The positive control cells contain a drug such as, for example, miconazole. […] After incubation for 60 minutes, the wells were read with a fluorescent plate reader.
Background: Liver microsomes are a subcellular fraction often used to study metabolism.

Chain of CYP2D6 (P10635 whole entry): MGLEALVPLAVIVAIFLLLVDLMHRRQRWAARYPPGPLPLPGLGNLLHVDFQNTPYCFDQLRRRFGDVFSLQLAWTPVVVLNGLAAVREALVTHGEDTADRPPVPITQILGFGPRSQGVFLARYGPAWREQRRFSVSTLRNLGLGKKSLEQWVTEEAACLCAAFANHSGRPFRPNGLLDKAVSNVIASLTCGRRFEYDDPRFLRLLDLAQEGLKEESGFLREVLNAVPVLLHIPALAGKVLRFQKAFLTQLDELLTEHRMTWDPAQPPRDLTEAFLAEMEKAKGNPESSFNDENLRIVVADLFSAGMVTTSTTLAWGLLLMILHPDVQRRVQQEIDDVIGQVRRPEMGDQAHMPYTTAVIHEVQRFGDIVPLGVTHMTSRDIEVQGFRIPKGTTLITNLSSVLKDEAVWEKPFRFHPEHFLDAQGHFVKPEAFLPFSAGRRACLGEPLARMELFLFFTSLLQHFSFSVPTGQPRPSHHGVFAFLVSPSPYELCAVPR
T1 sequence (Q13464 6-553, species assumed): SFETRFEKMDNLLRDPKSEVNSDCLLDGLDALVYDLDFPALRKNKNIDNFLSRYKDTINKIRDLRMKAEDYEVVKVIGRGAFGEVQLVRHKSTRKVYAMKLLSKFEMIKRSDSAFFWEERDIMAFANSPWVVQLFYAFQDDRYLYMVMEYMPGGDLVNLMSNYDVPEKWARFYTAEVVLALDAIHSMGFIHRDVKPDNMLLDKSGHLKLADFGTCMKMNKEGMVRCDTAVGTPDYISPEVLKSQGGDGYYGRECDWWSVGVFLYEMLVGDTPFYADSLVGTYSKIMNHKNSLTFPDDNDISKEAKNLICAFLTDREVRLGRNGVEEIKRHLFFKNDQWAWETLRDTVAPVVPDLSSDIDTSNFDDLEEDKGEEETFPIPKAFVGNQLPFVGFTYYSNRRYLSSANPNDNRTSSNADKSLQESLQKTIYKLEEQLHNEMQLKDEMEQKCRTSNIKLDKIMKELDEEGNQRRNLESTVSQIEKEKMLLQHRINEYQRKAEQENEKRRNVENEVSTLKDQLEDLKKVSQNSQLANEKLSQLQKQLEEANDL
Chain of CYP3A4 (P08684 whole entry): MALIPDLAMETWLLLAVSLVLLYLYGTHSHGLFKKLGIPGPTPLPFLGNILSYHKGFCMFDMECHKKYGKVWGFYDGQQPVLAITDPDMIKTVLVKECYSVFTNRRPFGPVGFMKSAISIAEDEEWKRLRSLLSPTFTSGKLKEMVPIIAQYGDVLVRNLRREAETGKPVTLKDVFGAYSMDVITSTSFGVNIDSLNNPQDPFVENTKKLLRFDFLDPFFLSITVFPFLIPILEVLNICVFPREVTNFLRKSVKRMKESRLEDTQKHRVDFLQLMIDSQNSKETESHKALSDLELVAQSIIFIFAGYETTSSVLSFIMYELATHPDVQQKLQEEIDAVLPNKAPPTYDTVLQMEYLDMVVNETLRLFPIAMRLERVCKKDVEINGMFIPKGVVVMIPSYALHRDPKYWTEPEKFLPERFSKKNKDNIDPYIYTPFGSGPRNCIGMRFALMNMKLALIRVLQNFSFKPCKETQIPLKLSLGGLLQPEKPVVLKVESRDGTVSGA
T3 sequence (P08684 whole entry): as above
Chain of CYP2C19 (P33261 whole entry): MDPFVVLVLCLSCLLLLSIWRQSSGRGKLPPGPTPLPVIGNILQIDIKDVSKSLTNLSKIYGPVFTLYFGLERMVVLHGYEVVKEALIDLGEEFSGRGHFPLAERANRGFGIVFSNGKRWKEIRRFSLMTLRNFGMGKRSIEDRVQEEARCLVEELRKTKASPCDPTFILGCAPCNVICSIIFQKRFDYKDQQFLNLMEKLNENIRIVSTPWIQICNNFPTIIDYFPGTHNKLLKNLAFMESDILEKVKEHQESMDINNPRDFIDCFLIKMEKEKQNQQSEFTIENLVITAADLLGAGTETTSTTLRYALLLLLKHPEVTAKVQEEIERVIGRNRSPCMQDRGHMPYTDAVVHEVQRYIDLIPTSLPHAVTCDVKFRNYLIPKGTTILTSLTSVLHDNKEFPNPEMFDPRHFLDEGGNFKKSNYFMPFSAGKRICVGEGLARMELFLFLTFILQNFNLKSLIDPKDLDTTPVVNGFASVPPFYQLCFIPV

One may read the Ki as a dissociation constant, usually derived from enzyme kinetics or from competition with a known ligand. On to `Cc1cc(-c2csc(NC(=O)Cc3cccc(O)c3)c2)ccn1` [Compound 85], for which the Ki at ROCK I (AA 6-553) was under 0.1 µM; at CYP3A4 it was over 10 µM; at CYP1A2 it was over 10 µM; on CYP2C9 it was over 10 µM; at CYP2C19, 1 to 10 µM; at CYP2D6, over 10 µM. Besides, the inhibition constant Ki in assay [1] was over 10 µM.
